According to patent US6803359B2, “Inhibition of abnormal cell growth with corticotropin-releasing hormone analogs” (The Regents of the University of California, priority 1999, dated 2004):
Marks after values point to notes of the source that are not given here.

Tests used:
[1] = in vivo, iv
Method: (§3) On the ordinate, the response is given in units of integrated blood pressure observed over a 100 minute period after the intravenous injection of the test substance is pentobarbital-anesthetized rats (no. of animals=8 per group per dose). The area-under-curve, is given in units of mm Hg per minute.

B16 melanoma = assay: Growth of subcutaneously transplanted B16 melanoma in mice (tumor volume by caliper); type: in vivo; settings: 0.1 mg/kg s.c. on days 3 to 7
Method: (§1) This example illustrates the anti-cancer property of an inventive peptide with a D-amino acid as residue 20. Various tumor cells were transplanted into mice or rats and the tumor volume was measured using a caliper-ruler. The volume of the tumor, in cubic mm, was estimated as the long axis×the square of the short axis divided by 2.
In the experiment of Table 2, female mice, weighing 20-25 g, of a C57B1 line, were transplanted under the skin with B16 melanoma cells. After transplantation of tumors mice were mixed and divided into groups of controls, CRH-treated and [D-Glu^20] CRH-treated. The test substances at a dose of 0.1 mg/kg subcutaneously or the vehicle control (saline) was injected on days 3 to 7 after tumor transplantation, and the volume of tumors were measured at various days afterwards.

Walker carcinosarcoma = assay: Growth of subcutaneously transplanted Walker carcinosarcoma in rats (tumor volume); type: in vivo; settings: 0.1 mg/kg
Method: as §1
(§2) The second experiment and third experiment (data shown in Tables 3 and 4) were conducted on white non-inbred male rats with a subcutaneous transplant of Walker carcinosarcoma or Ehrlich solid carcinoma. Animals after transplantation of tumors were mixed and were divided into groups of controls, CRH-treated and [D-Glu^20] CRH-treated.

Ehrlich solid carcinoma = assay: Growth of subcutaneously transplanted Ehrlich solid carcinoma in rats (tumor volume); type: in vivo; settings: 0.1 mg/kg
Method: as §1, §2

[2] = test system: W256 rat mammary carcinoma; settings: 100 micrograms/kg subcutaneously twice a day for 3 days; cited from earlier work
W256 cells = settings: in vitro; cited from earlier work
[3] = Hypotensive effect in pentobarbital-anesthetized male rats after i.v. injection; settings: 0.05 mg/kg i.v.
Method: as §3

hypotensive activity compared with unmodified CRH (human/rat) control [1] | Compound | Volume of Tumors (B16 melanoma; day 10 after transplantation) | Volume of Tumors (B16 melanoma; day 12 after transplantation) | Volume of Tumors (B16 melanoma; day 14 after transplantation) | Volume of Tumors (B16 melanoma; day 17 after transplantation) | Volume of Tumors (Walker carcinosarcoma; day 7 after transplantation) [mm^3] | Volume of Tumors (Walker carcinosarcoma; day 10 after transplantation) [mm^3] | Volume of Tumors (Walker carcinosarcoma; day 12 after transplantation) [mm^3] | Volume of Tumors (Walker carcinosarcoma; day 14 after transplantation) [mm^3] | Volume of Tumors (Ehrlich solid carcinoma; day 9 after transplantation) | Volume of Tumors (Ehrlich solid carcinoma; day 11 after transplantation) | Volume of Tumors (Ehrlich solid carcinoma; day 14 after transplantation) | inhibition of growth of intracerebrally-injected W256 tumor cells [2] | antiproliferative effects in W256 cell cultures (W256 cells) | average fall in mean blood pressure over a 100 minute period [3] [mm Hg] | integrated blood pressure response (area-under-curve) over a 100 minute period [3]
much less hypotensive activity | CC[C@H](C)[C@H](NC(=O)[C@@H](NC(=O)[C@H](CCC(=O)O)NC(=O)[C@H](CCSC)NC(=O)[C@H](CC(C)C)NC(=O)[C@H](CCCCN)NC(=O)[C@H](CCCNC(=N)N)NC(=O)[C@H](CC(N)=O)NC(=O)[C@H](CO)NC(=O)[C@H](Cc1c[nH]cn1)NC(=O)[C@H](C)NC(=O)[C@H](CCC(N)=O)NC(=O)[C@H](CCC(N)=O)NC(=O)[C@H](C)NC(=O)[C@H](CC(C)C)NC(=O)[C@H](CCC(N)=O)NC(=O)[C@H](CCC(=O)O)NC(=O)[C@H](C)NC(=O)[C@H](CCCNC(=N)N)NC(=O)[C@H](C)NC(=O)[C@H](CCSC)NC(=O)[C@@H](CCC(=O)O)NC(=O)[C@H](CC(C)C)NC(=O)[C@@H](NC(=O)[C@H](CCC(=O)O)NC(=O)[C@H](CCCNC(=N)N)NC(=O)[C@H](CC(C)C)NC(=O)[C@H](CC(C)C)NC(=O)[C@H](Cc1c[nH]cn1)NC(=O)[C@H](Cc1ccccc1)NC(=O)[C@@H](NC(=O)[C@H](CC(C)C)NC(=O)[C@H](CC(=O)O)NC(=O)[C@H](CC(C)C)NC(=O)[C@H](CO)NC(=O)[C@@H](NC(=O)[C@@H]1CCCN1C(=O)[C@@H]1CCCN1C(=O)[C@H](CCC(=O)O)NC(=O)[C@H](CCC(=O)O)NC(=O)[C@@H](N)CO)[C@@H](C)CC)[C@@H](C)O)C(C)C)[C@@H](C)CC)C(N)=O [[D-Glu^20] CRH] |  |  |  |  |  |  |  |  |  |  |  |  |  |  | 
 | hCRH: unmodified human/rat corticotropin-releasing hormone, 41-residue C-terminally amidated peptide, SEQ ID NO 1 | 29 + 7* mm^3 | 157 + 23* mm^3 | 133 + 15* mm^3 | 238 + 41 mm^3 | 196 | 3600 ± 413 | 6942 | 10832 | 226 ± 14* mm^3 | 384 ± 61* mm^3 | 763 ± 114* mm^3 | significant inhibition of growth | antiproliferative effects | 72 | approximately 7200 mm Hg-min
